Results: ChEMBL document CHEMBL1201862, “PubChem BioAssay data set” (2004)
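Test compounds were applied to cells in 96-well plates for 48 hours at 5 doses. The concentration for 50% growth inhibition is given as GI50.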 Activity calls are given as the source filed them. Cut-off read from the data, not from the text of the source: active = GI50 up to about 1.1 µM and inactive = higher.

What was measured:
Test in all cases: growth of human tumour cells (NCI), 48 h
SNB-19 = system: SNB-19
DU-145 = system: DU-145
MCF7 = system: MCF7
RXF 393 = system: RXF 393
NCI-H226 = system: NCI-H226
SK-OV-3 = system: SK-OV-3
K562 = system: K562
SK-MEL-2 = system: SK-MEL-2
UACC-62 = system: UACC-62
SNB-75 = system: SNB-75
Malme-3M = system: Malme-3M
MDA-MB-231 = system: MDA-MB-231
ACHN = system: ACHN
IGROV-1 = system: IGROV-1
COLO 205 = system: COLO 205
OVCAR-5 = system: OVCAR-5
SK-MEL-28 = system: SK-MEL-28
SW-620 = system: SW-620
UACC-257 = system: UACC-257

Measured: GI50

CCOC(=O)c1cnc(-n2[nH]c(C)c(CCO)c2=O)[nH]c1=O
inactive: SNB-19 > 100 µM | DU-145 > 100 µM | MCF7 > 100 µM | RXF 393 > 100 µM | NCI-H226 > 100 µM | SK-OV-3 > 100 µM | K562 > 100 µM | SK-MEL-2 > 100 µM | UACC-62 > 100 µM | SNB-75 88.3 µM | Malme-3M > 100 µM | MDA-MB-231 > 100 µM | ACHN > 100 µM | IGROV-1 > 100 µM | COLO 205 > 100 µM | OVCAR-5 > 100 µM | SK-MEL-28 > 100 µM | SW-620 > 100 µM | UACC-257 > 100 µM

[O-][S+](c1ccc(Cl)cc1)c1ccccc1C1=NCCN1 (stereo not given)
inactive: SNB-19 > 100 µM | DU-145 > 100 µM | MCF7 > 100 µM | RXF 393 > 100 µM | NCI-H226 > 100 µM | SK-OV-3 > 100 µM | K562 > 100 µM | SK-MEL-2 > 100 µM | UACC-62 > 100 µM | SNB-75 > 100 µM | Malme-3M > 100 µM | MDA-MB-231 > 100 µM | ACHN > 100 µM | IGROV-1 > 100 µM | COLO 205 > 100 µM | OVCAR-5 > 100 µM | SK-MEL-28 > 100 µM | SW-620 > 100 µM | UACC-257 > 100 µM

Cc1ccc(C(=O)O)c(CC2Cc3c(C)cccc3C2=O)c1 (stereo not given)
inactive: SNB-19 > 100 µM | DU-145 > 100 µM | MCF7 > 100 µM | RXF 393 > 100 µM | NCI-H226 > 100 µM | SK-OV-3 > 100 µM | K562 > 100 µM | SK-MEL-2 > 100 µM | UACC-62 > 100 µM | SNB-75 > 100 µM | Malme-3M > 100 µM | MDA-MB-231 > 100 µM | ACHN > 100 µM | IGROV-1 > 100 µM | COLO 205 > 100 µM | OVCAR-5 > 100 µM | SK-MEL-28 > 100 µM | SW-620 > 100 µM | UACC-257 > 100 µM

O=C(Nc1ccccc1C(=O)O)C(=Cc1ccccc1O)NC(=O)c1ccccc1
inactive: SNB-19 > 100 µM | DU-145 > 100 µM | MCF7 9.27 µM | RXF 393 > 100 µM | NCI-H226 61.2 µM | SK-OV-3 > 100 µM | K562 > 100 µM | SK-MEL-2 > 100 µM | UACC-62 > 100 µM | SNB-75 > 100 µM | Malme-3M > 100 µM | MDA-MB-231 > 100 µM | ACHN > 100 µM | IGROV-1 > 100 µM | COLO 205 > 100 µM | OVCAR-5 > 100 µM | SK-MEL-28 > 100 µM | SW-620 > 100 µM | UACC-257 > 100 µM

COC(OC)C1(c2ccccc2)Oc2ccccc2C1=O (stereo not given)
inactive: SNB-19 > 100 µM | DU-145 > 100 µM | MCF7 > 100 µM | RXF 393 > 100 µM | NCI-H226 > 100 µM | SK-OV-3 > 100 µM | K562 65.2 µM | SK-MEL-2 > 100 µM | UACC-62 > 100 µM | SNB-75 > 100 µM | Malme-3M > 100 µM | MDA-MB-231 > 100 µM | ACHN > 100 µM | IGROV-1 > 100 µM | COLO 205 > 100 µM | OVCAR-5 > 100 µM | SK-MEL-28 > 100 µM | SW-620 > 100 µM | UACC-257 > 100 µM

CCN(CC)C1Oc2cc3c(cc2C(c2cccc(OC)c2O)C1C)OCO3 (stereo not given)
inactive: SNB-19 3.76 µM | DU-145 5.35 µM | MCF7 9.55 µM | RXF 393 4.5 µM | NCI-H226 3.44 µM | SK-OV-3 4.99 µM | K562 3.75 µM | SK-MEL-2 4.52 µM | UACC-62 5.24 µM | SNB-75 2.81 µM | Malme-3M 3.94 µM | MDA-MB-231 10.5 µM | ACHN 6.25 µM | IGROV-1 8.04 µM | COLO 205 3.03 µM | OVCAR-5 13.8 µM | SK-MEL-28 5.96 µM | SW-620 4.33 µM | UACC-257 7.6 µM

Cc1cn(CCCCCCC2=NCCCN2)c(=O)[nH]c1=O
inactive: SNB-19 > 100 µM | DU-145 > 100 µM | MCF7 > 100 µM | RXF 393 > 100 µM | NCI-H226 > 100 µM | SK-OV-3 > 100 µM | K562 > 100 µM | SK-MEL-2 > 100 µM | UACC-62 > 100 µM | SNB-75 > 100 µM | Malme-3M > 100 µM | MDA-MB-231 > 100 µM | ACHN > 100 µM | IGROV-1 > 100 µM | COLO 205 > 100 µM | OVCAR-5 > 100 µM | SK-MEL-28 > 100 µM | SW-620 > 100 µM | UACC-257 > 100 µM

CCOC(=O)c1ccc(C(=O)C(C(C)=O)C(=O)OC(C)(C)C)n1C (stereo not given)
inactive: SNB-19 > 100 µM | DU-145 > 100 µM | MCF7 > 100 µM | RXF 393 > 100 µM | NCI-H226 > 100 µM | SK-OV-3 > 100 µM | K562 > 100 µM | SK-MEL-2 > 100 µM | UACC-62 > 100 µM | SNB-75 78.5 µM | Malme-3M > 100 µM | MDA-MB-231 > 100 µM | ACHN > 100 µM | IGROV-1 > 100 µM | COLO 205 > 100 µM | OVCAR-5 > 100 µM | SK-MEL-28 > 100 µM | SW-620 > 100 µM | UACC-257 > 100 µM

O=C(O)C(Cl)(c1ccccc1)c1ccccc1
inactive: SNB-19 > 100 µM | DU-145 > 100 µM | MCF7 > 100 µM | RXF 393 > 100 µM | NCI-H226 > 100 µM | SK-OV-3 > 100 µM | K562 83 µM | SK-MEL-2 > 100 µM | UACC-62 > 100 µM | SNB-75 > 100 µM | Malme-3M > 100 µM | MDA-MB-231 > 100 µM | ACHN > 100 µM | IGROV-1 > 100 µM | COLO 205 > 100 µM | OVCAR-5 > 100 µM | SK-MEL-28 > 100 µM | SW-620 > 100 µM | UACC-257 > 100 µM

O=c1c2ccccc2nc(-c2ccccc2)n1/N=C/c1ccccc1[N+](=O)[O-]
inactive: SNB-19 17 µM | DU-145 > 100 µM | MCF7 > 78.2 µM | RXF 393 19.3 µM | NCI-H226 61.1 µM | SK-OV-3 19.6 µM | K562 > 100 µM | SK-MEL-2 74.5 µM | UACC-62 79.6 µM | SNB-75 7.41 µM | Malme-3M > 100 µM | MDA-MB-231 17.7 µM | ACHN 27.8 µM | IGROV-1 > 69.7 µM | COLO 205 > 100 µM | OVCAR-5 > 100 µM | SK-MEL-28 > 100 µM | SW-620 > 100 µM | UACC-257 > 100 µM
